Data from ChEMBL document CHEMBL1149685, “Novel tethers in ketolide antibiotics” (2007).
Values after ≈ are worked out from the molar mass of the structure shown. Active and inactive are the calls of the source. The rule behind the calls is not given here.

Tests used:
Format in all cases: functional
Haemophilus influenzae [1] = assay: Antimicrobial activity against Haemophilus influenzae 1325
Streptococcus pyogenes [2] = assay: Antibacterial activity against erythromycin-resistant ermB expressing Streptococcus pyogenes 1079
Streptococcus pneumoniae [3] = assay: Antibacterial activity against erythromycin-resistant ermB expressing Streptococcus pneumoniae 1095
Streptococcus pneumoniae [4] = assay: Antibacterial activity against erythromycin-resistant mef expressing Streptococcus pneumoniae 1175
Haemophilus influenzae [5] = assay: Antibacterial activity against Haemophilus influenzae 1100 in po dosed gerbils
Streptococcus pneumoniae [6] = assay: Protection against erythromycin-resistant Streptococcus pneumoniae 1095 infection in po dosed mouse after 4 days
Streptococcus pyogenes [7] = assay: Antibacterial activity against erythromycin-resistant Streptococcus pyogenes 1068 in mouse soft tissue infection model assessed as reduction in bacterial count at 100 mg/kg, po after 24 hrs
[8] = Streptococcus pneumoniae, read-out: MIC

Structure (SMILES) | MIC (Haemophilus influenzae [1]) | MIC (Streptococcus pyogenes [2]) | MIC (Streptococcus pneumoniae [3]; [8]) | MIC (Streptococcus pneumoniae [4]) | ED50 (Haemophilus influenzae [5]) | PD50 (Streptococcus pneumoniae [6]) | Activity (Streptococcus pyogenes [7]) | MIC (Streptococcus pneumoniae [3]) | Log10 cfu (Streptococcus pyogenes [7])
CC[C@H]1OC(=O)[C@H](C)C(=O)[C@H](C)[C@@H](O[C@@H]2O[C@H](C)C[C@H](N(C)C)[C@H]2O)[C@](C)(OC)C[C@@H](C)C(=O)[C@H](C)[C@H]2N(CNC(=O)NCc3ccc4ncccc4c3)C(=O)O[C@]12C | 1 µg/mL (≈ 1.21 µM) | 4 µg/mL (≈ 4.84 µM) | 0.25 µg/mL (≈ 0.303 µM) | 0.125 µg/mL (≈ 0.151 µM) |  |  |  |  | 
CC[C@H]1OC(=O)[C@H](C)C(=O)[C@H](C)[C@@H](O[C@@H]2O[C@H](C)C[C@H](N(C)C)[C@H]2O)[C@](C)(OC)C[C@@H](C)C(=O)[C@H](C)[C@H]2N(CNC(=O)NCc3cncc4ccccc34)C(=O)O[C@]12C | 4 µg/mL (≈ 4.84 µM) | 16 µg/mL (≈ 19.4 µM) | < 0.063 µg/mL | < 0.063 µg/mL |  |  |  |  | 
CC[C@H]1OC(=O)[C@H](C)C(=O)[C@H](C)[C@@H](O[C@@H]2O[C@H](C)C[C@H](N(C)C)[C@H]2O)[C@](C)(OC)C[C@@H](C)C(=O)[C@H](C)[C@H]2N(CNC(=O)OCc3ccc4nccnc4c3)C(=O)O[C@]12C | 2 µg/mL (≈ 2.42 µM) | 16 µg/mL (≈ 19.3 µM) | < 0.063 µg/mL | < 0.063 µg/mL |  |  |  |  | 
CC[C@H]1OC(=O)[C@H](C)C(=O)[C@H](C)[C@@H](O[C@@H]2O[C@H](C)C[C@H](N(C)C)[C@H]2O)[C@](C)(OC)C[C@@H](C)C(=O)[C@H](C)[C@H]2N(CNC(=O)NCc3ccc4cccnc4c3)C(=O)O[C@]12C | 4 µg/mL (≈ 4.84 µM) | 64 µg/mL (≈ 77.5 µM) | < 0.063 µg/mL | 0.5 µg/mL (≈ 0.605 µM) |  |  |  |  | 
CC[C@H]1OC(=O)[C@H](C)C(=O)[C@H](C)[C@@H](O[C@@H]2O[C@H](C)C[C@H](N(C)C)[C@H]2O)[C@](C)(OC)C[C@@H](C)C(=O)[C@H](C)[C@H]2N(CNC(=O)OCc3cccc4ncccc34)C(=O)O[C@]12C | 32 µg/mL (≈ 38.7 µM) | 16 µg/mL (≈ 19.3 µM) | 0.125 µg/mL (≈ 0.151 µM) | 0.125 µg/mL (≈ 0.151 µM) |  |  |  |  | 
CC[C@H]1OC(=O)[C@H](C)C(=O)[C@H](C)[C@@H](O[C@@H]2O[C@H](C)C[C@H](N(C)C)[C@H]2O)[C@](C)(OC)C[C@@H](C)C(=O)[C@H](C)[C@H]2N(CCCCn3cnc(-c4cccnc4)c3)C(=O)O[C@]12C [TELITHROMYCIN] | 3.9 µg/mL (≈ 4.8 µM) | 18 µg/mL (≈ 22.2 µM) | < 0.063 µg/mL | 0.378 µg/mL (≈ 0.466 µM) | 27.5 mg/kg | 71.5 mg/kg | inactive |  | 
CC[C@H]1OC(=O)[C@@](C)(F)C(=O)[C@H](C)[C@@H](O[C@@H]2O[C@H](C)C[C@H](N(C)C)[C@H]2O)[C@](C)(OC)C[C@@H](C)C(=O)[C@H](C)[C@H]2N(CNC(=O)NCc3ccc4nccnc4c3)C(=O)O[C@]12C | 1 µg/mL (≈ 1.18 µM) | 1 µg/mL (≈ 1.18 µM) | < 0.063 µg/mL | < 0.063 µg/mL |  |  |  |  | 
CC[C@H]1OC(=O)[C@H](C)C(=O)[C@H](C)[C@@H](O[C@@H]2O[C@H](C)C[C@H](N(C)C)[C@H]2O)[C@](C)(OC)C[C@@H](C)C(=O)[C@H](C)[C@H]2N(CNC(=O)OCc3ccc4ncccc4c3)C(=O)O[C@]12C | 2 µg/mL (≈ 2.42 µM) | 8 µg/mL (≈ 9.67 µM) | 0.25 µg/mL (≈ 0.302 µM) | < 0.063 µg/mL |  |  |  |  | 
CC[C@H]1OC(=O)[C@H](C)C(=O)[C@H](C)[C@@H](O[C@@H]2O[C@H](C)C[C@H](N(C)C)[C@H]2O)[C@](C)(OC)C[C@@H](C)C(=O)[C@H](C)[C@H]2N(CNC(=O)OCc3ccc4cccnc4c3)C(=O)O[C@]12C | 4 µg/mL (≈ 4.84 µM) | 64 µg/mL (≈ 77.4 µM) | < 0.063 µg/mL | < 0.063 µg/mL |  |  |  |  | 
CC[C@H]1OC(=O)[C@H](C)C(=O)[C@H](C)[C@@H](O[C@@H]2O[C@H](C)C[C@H](N(C)C)[C@H]2O)[C@](C)(OC)C[C@@H](C)C(=O)[C@H](C)[C@H]2N(CCNC(=O)OCc3cnc4ccccc4c3)C(=O)O[C@]12C | 32 µg/mL (≈ 38 µM) | > 64 µg/mL |  | 0.125 µg/mL (≈ 0.149 µM) |  |  |  | > 64 µg/mL | 
CC[C@H]1OC(=O)[C@H](C)C(=O)[C@H](C)[C@@H](O[C@@H]2O[C@H](C)C[C@H](N(C)C)[C@H]2O)[C@](C)(OC)C[C@@H](C)C(=O)[C@H](C)[C@H]2N(CNC(=O)OCc3cnc4ccccc4n3)C(=O)O[C@]12C | 8 µg/mL (≈ 9.66 µM) | > 64 µg/mL | 0.25 µg/mL (≈ 0.302 µM) | 0.25 µg/mL (≈ 0.302 µM) |  |  |  |  | 
CC[C@H]1OC(=O)[C@@](C)(F)C(=O)[C@H](C)[C@@H](O[C@@H]2O[C@H](C)C[C@H](N(C)C)[C@H]2O)[C@](C)(OC)C[C@@H](C)C(=O)[C@H](C)[C@H]2N(CNC(=O)OCc3ccc4nccnc4c3)C(=O)O[C@]12C | 2 µg/mL (≈ 2.36 µM) | 1 µg/mL (≈ 1.18 µM) | < 0.063 µg/mL | < 0.063 µg/mL | 39.5 mg/kg | 71.2 mg/kg |  |  | 2.3
CC[C@H]1OC(=O)[C@H](C)C(=O)[C@H](C)[C@@H](O[C@@H]2O[C@H](C)C[C@H](N(C)C)[C@H]2O)[C@](C)(OC)C[C@@H](C)C(=O)[C@H](C)[C@H]2N(CCNC(=O)NCc3cnc4ccccc4c3)C(=O)O[C@]12C | 16 µg/mL (≈ 19 µM) | > 64 µg/mL | > 64 µg/mL | 0.5 µg/mL (≈ 0.595 µM) |  |  |  |  | 
CC[C@H]1OC(=O)[C@H](C)C(=O)[C@H](C)[C@@H](O[C@@H]2O[C@H](C)C[C@H](N(C)C)[C@H]2O)[C@](C)(OC)C[C@@H](C)C(=O)[C@H](C)[C@H]2N(CNC(=O)Nc3cnc4ccccc4c3)C(=O)O[C@]12C | 16 µg/mL (≈ 19.7 µM) | > 64 µg/mL | 0.25 µg/mL (≈ 0.308 µM) | < 0.063 µg/mL |  |  |  |  | 
CC[C@H]1OC(=O)[C@H](C)C(=O)[C@H](C)[C@@H](O[C@@H]2O[C@H](C)C[C@H](N(C)C)[C@H]2O)[C@](C)(OC)C[C@@H](C)C(=O)[C@H](C)[C@H]2N(CNC(=O)NCc3ccc4nccnc4c3)C(=O)O[C@]12C | 2 µg/mL (≈ 2.42 µM) | 2 µg/mL (≈ 2.42 µM) | < 0.063 µg/mL | 0.25 µg/mL (≈ 0.302 µM) |  |  |  |  | 
CC[C@H]1OC(=O)[C@H](C)C(=O)[C@H](C)[C@@H](O[C@@H]2O[C@H](C)C[C@H](NC)[C@H]2O)[C@](C)(OC)C[C@@H](C)C(=O)[C@H](C)[C@H]2N(CNC(=O)OCc3cnc4ccccc4c3)C(=O)O[C@]12C | 8 µg/mL (≈ 9.84 µM) | 64 µg/mL (≈ 78.7 µM) | < 0.063 µg/mL | < 0.063 µg/mL |  |  |  |  | 
CC[C@H]1OC(=O)[C@H](C)C(=O)[C@H](C)[C@@H](O[C@@H]2O[C@H](C)C[C@H](N(C)C)[C@H]2O)[C@](C)(OC)C[C@@H](C)C(=O)[C@H](C)[C@H]2N(CNC(=O)OCc3ccnc4ccccc34)C(=O)O[C@]12C | 8 µg/mL (≈ 9.67 µM) | 64 µg/mL (≈ 77.4 µM) | 0.5 µg/mL (≈ 0.605 µM) | < 0.063 µg/mL |  |  |  |  | 
CC[C@H]1OC(=O)[C@@](C)(F)C(=O)[C@H](C)[C@@H](O[C@@H]2O[C@H](C)C[C@H](N(C)C)[C@H]2O)[C@](C)(OC)C[C@@H](C)C(=O)[C@H](C)[C@H]2N(CNC(=O)OCc3cccc4nccnc34)C(=O)O[C@]12C | 4 µg/mL (≈ 4.73 µM) | 22.6 µg/mL (≈ 26.7 µM) | < 0.063 µg/mL | < 0.063 µg/mL |  |  |  |  | 
CC[C@H]1OC(=O)[C@H](C)C(=O)[C@H](C)[C@@H](O[C@@H]2O[C@H](C)C[C@H](N(C)C)[C@H]2O)[C@](C)(OC)C[C@@H](C)C(=O)[C@H](C)[C@H]2N(CNC(=O)NCc3cnc4ccccc4n3)C(=O)O[C@]12C | 4 µg/mL (≈ 4.84 µM) | > 64 µg/mL | < 0.063 µg/mL | 0.25 µg/mL (≈ 0.302 µM) |  |  |  |  | 
